Assay results reported in patent US6706663B2, “Herbicidal 3-heterocyclic substituted benzisothiazole and benzisoxazole compounds” (Wyeth, priority 2000, dated 2004).

How the values were obtained:
[1] = test system: MOOVA (Monochoria vaginalis); assay: Flooded paddy, preemergence weed control; type: in vivo, Presl.; conditions: rated 3-4 weeks after treatment, 0-9 rating scale
Procedure, shortened: (§1)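 Seeds or propagules were planted in the top 0.5 cm of silt loam soil and kept flooded 1.5–3 cm above the surface throughout, then held in the greenhouse. Injury was rated visually on a 0–9 scale against untreated controls, covering stand, vigor, malformation, size and chlorosis.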

[2] = test system: ABUTH (Abutilon theophrasti); assay: Postemergence herbicidal evaluation; type: in vivo, Medic.; conditions: postemergence
Procedure, shortened: (§2)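 Seedlings grown for about two weeks were sprayed postemergence and then kept under standard greenhouse care. Injury was rated visually 4–5 weeks after treatment on a 0–9 scale against untreated controls, and ratings from repeat tests were averaged.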

[3] = test system: IPOHE (Ipomoea hederacea); assay: Postemergence herbicidal evaluation; type: in vivo, (L.) Jacq.; conditions: postemergence
Procedure, shortened: as §2

[4] = test system: TRZAWR (Wheat, Winter, cv Riband); assay: Preemergence herbicidal evaluation; type: in vivo, Triticum aestivum; conditions: rated 4-5 weeks after treatment
Procedure, shortened: (§3)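 Seeds mixed with potting soil were planted atop about one inch of soil, then sprayed with test compound in aqueous acetone. Cups were kept in the greenhouse and rated visually 4–5 weeks after treatment on a 0–9 scale against untreated control.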

[5] = test system: ORYSAT (Rice, Tebonnet); assay: Postemergence herbicidal evaluation; type: in vivo, Oryza sativa, (L.) Tebonnet; conditions: postemergence
Procedure, shortened: as §2

[6] = test system: CASOB (Cassia obtusifolia); assay: Preemergence herbicidal evaluation; type: in vivo, L.; conditions: rated 4-5 weeks after treatment
Procedure, shortened: as §3

[7] = test system: AMBEL (Ambrosia artemisifolia); assay: Preemergence herbicidal evaluation; type: in vivo, L.; conditions: rated 4-5 weeks after treatment
Procedure, shortened: as §3

[8] = test system: CHEAL (Chenopodium album); assay: Preemergence herbicidal evaluation; type: in vivo, L.; conditions: rated 4-5 weeks after treatment
Procedure, shortened: as §3

[9] = test system: IPOHE (Ipomoea hederacea); assay: Preemergence herbicidal evaluation; type: in vivo, (L.) Jacq.; conditions: rated 4-5 weeks after treatment
[10] = test system: GLXMAW (Soybean, Williams); assay: Postemergence herbicidal evaluation; type: in vivo, Glycine max, (L.) Merr. cv Williams; conditions: postemergence
Procedure, shortened: as §2

[11] = test system: ORYSAT (Rice, Tebonnet); assay: Flooded paddy, post-transplant rice tolerance; type: in vivo, Oryza sativa, (L.) Tebonnet; conditions: flooded paddy, post-transplant rice, rated 3-4 weeks after treatment, 0-9 rating scale
Procedure, shortened: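 Scores (0-9) reflect visual injury relative to untreated plants in flooded silt loam. Each pot held two transplanted ten-day-old seedlings under 1.5 to 3 cm standing water in the greenhouse.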

[12] = test system: ZEAMX (Corn, Field); assay: Preemergence herbicidal evaluation; type: in vivo, Zea mays, L.; conditions: rated 4-5 weeks after treatment
[13] = test system: GLXMAW (Soybean, Williams); assay: Preemergence herbicidal evaluation; type: in vivo, Glycine max, (L.) Merr. cv Williams; conditions: rated 4-5 weeks after treatment
[14] = test system: ECHCG (Echinochloa crus-galli); assay: Preemergence herbicidal evaluation; type: in vivo, (L.) Beau; conditions: rated 4-5 weeks after treatment
Procedure, shortened: as §3

[15] = test system: SETVI (Setaria viridis); assay: Preemergence herbicidal evaluation; type: in vivo, (L.) Beau; conditions: rated 4-5 weeks after treatment
Procedure, shortened: as §3

[16] = test system: ABUTH (Abutilon theophrasti); assay: Preemergence herbicidal evaluation; type: in vivo, Medic.; conditions: rated 4-5 weeks after treatment
[17] = test system: CYPIR (Cyperus iria); assay: Flooded paddy, preemergence weed control; type: in vivo; conditions: rated 3-4 weeks after treatment, 0-9 rating scale
Procedure, shortened: as §1

[18] = test system: CASOB (Cassia obtusifolia); assay: Postemergence herbicidal evaluation; type: in vivo, L.; conditions: postemergence
Procedure, shortened: as §2

[19] = test system: AMBEL (Ambrosia artemisifolia); assay: Postemergence herbicidal evaluation; type: in vivo, L.; conditions: postemergence
Procedure, shortened: as §2

[20] = test system: CHEAL (Chenopodium album); assay: Postemergence herbicidal evaluation; type: in vivo, L.; conditions: postemergence
Procedure, shortened: as §2

SMILES: C[C@@H]1C[C@H](C)OC(c2nsc3ccc(-n4c(=O)cc(C(F)(F)F)n(C)c4=O)cc23)O1 (stereo partly drawn) [Compound 51, 3-[3-[(4R,6S)-4,6-dimethyl-m-dioxan-2-yl]-1,2-benzisothiazol-5-yl]-1-methyl-6-(trifluoromethyl)uracil]
- herbicidal rating, MOOVA ([1]; rate 0.0320 kg/ha): 9.0
- herbicidal rating, MOOVA ([1]; rate 0.1250 kg/ha): 9.0
- ABUTH herbicidal rating ([2]; rate 0.0320 kg/ha): 9.0
- ABUTH herbicidal rating ([2]; rate 0.0620 kg/ha): 9.0
- IPOHE herbicidal rating ([3]; rate 0.0320 kg/ha): 9.0
- IPOHE herbicidal rating ([3]; rate 0.0620 kg/ha): 9.0
- Preemergence herbicidal rating TRZAWR ([4]; Rate 0.0620 kg/ha): 9.0
- Preemergence herbicidal rating TRZAWR ([4]; Rate 0.1250 kg/ha): 9.0
- Preemergence herbicidal rating TRZAWR ([4]; Rate 0.2500 kg/ha): 9.0
- ORYSAT herbicidal rating ([5]; rate 0.0320 kg/ha): 3.0
- ORYSAT herbicidal rating ([5]; rate 0.0620 kg/ha): 4.0
- Preemergence herbicidal rating CASOB ([6]; Rate 0.0620 kg/ha): 9.0
- Preemergence herbicidal rating CASOB ([6]; Rate 0.1250 kg/ha): 9.0
- Preemergence herbicidal rating CASOB ([6]; Rate 0.2500 kg/ha): 9.0
- Preemergence herbicidal rating AMBEL ([7]; Rate 0.0620 kg/ha): 9.0
- Preemergence herbicidal rating AMBEL ([7]; Rate 0.1250 kg/ha): 9.0
- Preemergence herbicidal rating AMBEL ([7]; Rate 0.2500 kg/ha): 9.0
- Preemergence herbicidal rating CHEAL ([8]; Rate 0.0620 kg/ha): 9.0
- Preemergence herbicidal rating CHEAL ([8]; Rate 0.1250 kg/ha): 9.0
- Preemergence herbicidal rating CHEAL ([8]; Rate 0.2500 kg/ha): 9.0
- Preemergence herbicidal rating IPOHE ([9]; Rate 0.0620 kg/ha): 6.5
- Preemergence herbicidal rating IPOHE ([9]; Rate 0.1250 kg/ha): 9.0
- Preemergence herbicidal rating IPOHE ([9]; Rate 0.2500 kg/ha): 9.0
- GLXMAW herbicidal rating ([10]; rate 0.0320 kg/ha): 5.0
- GLXMAW herbicidal rating ([10]; rate 0.0620 kg/ha): 7.5
- herbicidal rating, ORYSAT (rice tolerance) ([11]; rate 0.0080 kg/ha): 7.0
- herbicidal rating, ORYSAT (rice tolerance) ([11]; rate 0.0320 kg/ha): 9.0
- herbicidal rating, ORYSAT (rice tolerance) ([11]; rate 0.1250 kg/ha): 9.0
- Preemergence herbicidal rating ZEAMX ([12]; Rate 0.0620 kg/ha): 8.0
- Preemergence herbicidal rating ZEAMX ([12]; Rate 0.1250 kg/ha): 8.5
- Preemergence herbicidal rating ZEAMX ([12]; Rate 0.2500 kg/ha): 9.0
- Preemergence herbicidal rating GLXMAW ([13]; Rate 0.0620 kg/ha): 9.0
- Preemergence herbicidal rating GLXMAW ([13]; Rate 0.1250 kg/ha): 9.0
- Preemergence herbicidal rating GLXMAW ([13]; Rate 0.2500 kg/ha): 9.0
- Preemergence herbicidal rating ECHCG ([14]; Rate 0.0620 kg/ha): 9.0
- Preemergence herbicidal rating ECHCG ([14]; Rate 0.1250 kg/ha): 9.0
- Preemergence herbicidal rating ECHCG ([14]; Rate 0.2500 kg/ha): 9.0
- Preemergence herbicidal rating SETVI ([15]; Rate 0.0620 kg/ha): 9.0
- Preemergence herbicidal rating SETVI ([15]; Rate 0.1250 kg/ha): 9.0
- Preemergence herbicidal rating SETVI ([15]; Rate 0.2500 kg/ha): 9.0
- Preemergence herbicidal rating ABUTH ([16]; Rate 0.0620 kg/ha): 9.0
- Preemergence herbicidal rating ABUTH ([16]; Rate 0.1250 kg/ha): 9.0
- Preemergence herbicidal rating ABUTH ([16]; Rate 0.2500 kg/ha): 9.0
- herbicidal rating, CYPIR ([17]; rate 0.0080 kg/ha): 3.0
- herbicidal rating, CYPIR ([17]; rate 0.0320 kg/ha): 8.0
- herbicidal rating, CYPIR ([17]; rate 0.1250 kg/ha): 9.0
- CASOB herbicidal rating ([18]; rate 0.0320 kg/ha): 2.0
- CASOB herbicidal rating ([18]; rate 0.0620 kg/ha): 6.0
- AMBEL herbicidal rating ([19]; rate 0.0320 kg/ha): 9.0
- AMBEL herbicidal rating ([19]; rate 0.0620 kg/ha): 9.0
- CHEAL herbicidal rating ([20]; rate 0.0320 kg/ha): 7.0
- CHEAL herbicidal rating ([20]; rate 0.0620 kg/ha): 8.0

SMILES: CC1CC(C)(C)OC(c2nsc3ccc(-n4c(=O)cc(C(F)(F)F)n(C)c4=O)cc23)O1 (centres unmarked) [Compound 55, 1-methyl-6-(trifluoromethyl)-3-[3-(4,4,6-trimethyl-m-dioxan-2-yl)-1,2-benzisothiazol-5-yl]uracil]
- herbicidal rating, MOOVA ([1]; rate 0.0320 kg/ha): 9.0
- herbicidal rating, MOOVA ([1]; rate 0.1250 kg/ha): 9.0
- ABUTH herbicidal rating ([2]; rate 0.0320 kg/ha): 9.0
- ABUTH herbicidal rating ([2]; rate 0.0620 kg/ha): 9.0
- IPOHE herbicidal rating ([3]; rate 0.0320 kg/ha): 9.0
- IPOHE herbicidal rating ([3]; rate 0.0620 kg/ha): 9.0
- Preemergence herbicidal rating TRZAWR ([4]; Rate 0.0620 kg/ha): 8.0
- Preemergence herbicidal rating TRZAWR ([4]; Rate 0.1250 kg/ha): 9.0
- Preemergence herbicidal rating TRZAWR ([4]; Rate 0.2500 kg/ha): 9.0
- ORYSAT herbicidal rating ([5]; rate 0.0320 kg/ha): 3.0
- ORYSAT herbicidal rating ([5]; rate 0.0620 kg/ha): 4.5
- Preemergence herbicidal rating CASOB ([6]; Rate 0.0620 kg/ha): 3.5
- Preemergence herbicidal rating CASOB ([6]; Rate 0.1250 kg/ha): 7.5
- Preemergence herbicidal rating CASOB ([6]; Rate 0.2500 kg/ha): 7.0
- Preemergence herbicidal rating AMBEL ([7]; Rate 0.0620 kg/ha): 9.0
- Preemergence herbicidal rating AMBEL ([7]; Rate 0.1250 kg/ha): 9.0
- Preemergence herbicidal rating AMBEL ([7]; Rate 0.2500 kg/ha): 9.0
- Preemergence herbicidal rating CHEAL ([8]; Rate 0.0620 kg/ha): 9.0
- Preemergence herbicidal rating CHEAL ([8]; Rate 0.1250 kg/ha): 9.0
- Preemergence herbicidal rating CHEAL ([8]; Rate 0.2500 kg/ha): 9.0
- Preemergence herbicidal rating IPOHE ([9]; Rate 0.0620 kg/ha): 7.5
- Preemergence herbicidal rating IPOHE ([9]; Rate 0.1250 kg/ha): 7.5
- Preemergence herbicidal rating IPOHE ([9]; Rate 0.2500 kg/ha): 8.0
- GLXMAW herbicidal rating ([10]; rate 0.0320 kg/ha): 4.5
- GLXMAW herbicidal rating ([10]; rate 0.0620 kg/ha): 5.0
- herbicidal rating, ORYSAT (rice tolerance) ([11]; rate 0.0080 kg/ha): 3.0
- herbicidal rating, ORYSAT (rice tolerance) ([11]; rate 0.0320 kg/ha): 4.5
- herbicidal rating, ORYSAT (rice tolerance) ([11]; rate 0.1250 kg/ha): 9.0
- Preemergence herbicidal rating ZEAMX ([12]; Rate 0.0620 kg/ha): 8.0
- Preemergence herbicidal rating ZEAMX ([12]; Rate 0.1250 kg/ha): 9.0
- Preemergence herbicidal rating ZEAMX ([12]; Rate 0.2500 kg/ha): 8.0
- Preemergence herbicidal rating GLXMAW ([13]; Rate 0.0620 kg/ha): 6.5
- Preemergence herbicidal rating GLXMAW ([13]; Rate 0.1250 kg/ha): 8.0
- Preemergence herbicidal rating GLXMAW ([13]; Rate 0.2500 kg/ha): 9.0
- Preemergence herbicidal rating ECHCG ([14]; Rate 0.0620 kg/ha): 9.0
- Preemergence herbicidal rating ECHCG ([14]; Rate 0.1250 kg/ha): 9.0
- Preemergence herbicidal rating ECHCG ([14]; Rate 0.2500 kg/ha): 9.0
- Preemergence herbicidal rating SETVI ([15]; Rate 0.0620 kg/ha): 9.0
- Preemergence herbicidal rating SETVI ([15]; Rate 0.1250 kg/ha): 9.0
- Preemergence herbicidal rating SETVI ([15]; Rate 0.2500 kg/ha): 9.0
- Preemergence herbicidal rating ABUTH ([16]; Rate 0.0620 kg/ha): 9.0
- Preemergence herbicidal rating ABUTH ([16]; Rate 0.1250 kg/ha): 9.0
- Preemergence herbicidal rating ABUTH ([16]; Rate 0.2500 kg/ha): 9.0
- herbicidal rating, CYPIR ([17]; rate 0.0080 kg/ha): 0.0
- herbicidal rating, CYPIR ([17]; rate 0.0320 kg/ha): 6.0
- herbicidal rating, CYPIR ([17]; rate 0.1250 kg/ha): 9.0
- CASOB herbicidal rating ([18]; rate 0.0320 kg/ha): 2.0
- CASOB herbicidal rating ([18]; rate 0.0620 kg/ha): 1.0
- AMBEL herbicidal rating ([19]; rate 0.0320 kg/ha): 9.0
- AMBEL herbicidal rating ([19]; rate 0.0620 kg/ha): 9.0
- CHEAL herbicidal rating ([20]; rate 0.0320 kg/ha): 5.0
- CHEAL herbicidal rating ([20]; rate 0.0620 kg/ha): 4.0
